The NIST ThermoML archive (doi:10.1016/j.jct.2019.03.040)
± gives the expanded uncertainty stated by the source.

How the values were obtained:
[1] = Liquid; Resistive pulse heating
[2] = molar heat capacity at constant pressure; conditions: 101.33 kPa, Metastable liquid, Small sample (50 mg) DSC

CC(=O)CCC(=O)O [4-oxopentanoic acid]
[1]
Conditions | Critical pressure [kPa] | Critical temperature [K]
– | 5310 ± 220 | 766 ± 12

[2]
Conditions | molar heat capacity at constant pressure [J/K/mol]
302.62 K | 245.93 ± 6
303.12 K | 246.16 ± 6
303.62 K | 246.05 ± 6
304.12 K | 246.28 ± 6
304.62 K | 246.16 ± 6
305.12 K | 246.51 ± 6
305.62 K | 246.4 ± 6
306.12 K | 246.86 ± 6
306.62 K | 246.86 ± 6
307.12 K | 246.86 ± 6
307.62 K | 246.86 ± 6
308.12 K | 246.98 ± 6
308.62 K | 247.44 ± 6
309.12 K | 247.09 ± 6
309.62 K | 247.33 ± 6
310.12 K | 247.44 ± 6
310.62 K | 248.02 ± 6
311.12 K | 247.91 ± 6
311.62 K | 247.91 ± 6
312.12 K | 247.91 ± 6
312.62 K | 247.91 ± 6
313.12 K | 247.56 ± 6
313.62 K | 247.91 ± 6
314.12 K | 248.25 ± 6
314.62 K | 248.37 ± 6
315.12 K | 248.49 ± 6
315.62 K | 248.83 ± 6.2
316.12 K | 248.95 ± 6.2
316.62 K | 249.53 ± 6.2
317.12 K | 249.65 ± 6.2
317.62 K | 249.76 ± 6.2
318.12 K | 250.46 ± 6.2
318.62 K | 250.23 ± 6.2
319.12 K | 250 ± 6.2
319.62 K | 250.34 ± 6.2
320.12 K | 250.11 ± 6.2
320.62 K | 250.46 ± 6.2
321.12 K | 250.34 ± 6.2
321.62 K | 250.46 ± 6.2
322.12 K | 250.58 ± 6.2
322.62 K | 250.46 ± 6.2
323.12 K | 251.16 ± 6.2
323.62 K | 251.04 ± 6.2
324.12 K | 251.27 ± 6.2
324.62 K | 251.51 ± 6.2
325.12 K | 251.27 ± 6.2
325.62 K | 251.39 ± 6.2
326.12 K | 251.74 ± 6.2
326.62 K | 252.2 ± 6.2
327.12 K | 251.85 ± 6.2
327.62 K | 251.85 ± 6.2
328.12 K | 251.85 ± 6.2
328.62 K | 252.09 ± 6.2
329.12 K | 252.32 ± 6.2
329.62 K | 251.85 ± 6.2
330.12 K | 252.55 ± 6.2
330.62 K | 252.55 ± 6.2
331.12 K | 252.67 ± 6.2
331.62 K | 253.25 ± 6.2
332.12 K | 253.6 ± 6.3
332.62 K | 253.83 ± 6.3
333.12 K | 254.06 ± 6.3
333.62 K | 254.29 ± 6.3
334.12 K | 254.06 ± 6.3
334.62 K | 254.18 ± 6.3
335.12 K | 254.41 ± 6.3
335.62 K | 254.41 ± 6.3
336.12 K | 254.87 ± 6.3
336.62 K | 254.64 ± 6.3
337.12 K | 255.11 ± 6.3
337.62 K | 255.45 ± 6.3
338.12 K | 255.22 ± 6.3
338.62 K | 255.22 ± 6.3
339.12 K | 255.57 ± 6.3
339.62 K | 255.8 ± 6.3
340.12 K | 256.03 ± 6.3
340.62 K | 256.5 ± 6.3
341.12 K | 256.73 ± 6.3
341.62 K | 257.08 ± 6.3
342.12 K | 257.43 ± 6.3
342.62 K | 257.54 ± 6.3
343.12 K | 257.66 ± 6.3
343.62 K | 257.89 ± 6.3
344.12 K | 257.89 ± 6.3
344.62 K | 257.31 ± 6.3
345.12 K | 257.43 ± 6.3
345.62 K | 257.54 ± 6.3
346.12 K | 257.89 ± 6.3
346.62 K | 258.24 ± 6.3
347.12 K | 258.59 ± 6.4
347.62 K | 258.7 ± 6.4
348.12 K | 258.59 ± 6.4
348.62 K | 258.82 ± 6.4
349.12 K | 258.94 ± 6.4
349.62 K | 258.82 ± 6.4
350.12 K | 258.94 ± 6.4
350.62 K | 259.17 ± 6.4
351.12 K | 259.17 ± 6.4
351.62 K | 259.29 ± 6.4
352.12 K | 260.21 ± 6.4
352.62 K | 260.1 ± 6.4
353.12 K | 259.87 ± 6.4
353.62 K | 260.33 ± 6.4
354.12 K | 260.45 ± 6.4
354.62 K | 259.75 ± 6.4
355.12 K | 260.21 ± 6.4
355.62 K | 260.45 ± 6.4
356.12 K | 260.79 ± 6.4
356.62 K | 260.79 ± 6.4
357.12 K | 260.56 ± 6.4
357.62 K | 260.79 ± 6.4
358.12 K | 260.45 ± 6.4
358.62 K | 260.56 ± 6.4
359.12 K | 261.03 ± 6.4
359.62 K | 260.68 ± 6.4
360.12 K | 260.79 ± 6.4
360.62 K | 261.03 ± 6.4
361.12 K | 261.38 ± 6.4
361.62 K | 261.61 ± 6.4
362.12 K | 261.96 ± 6.4
362.62 K | 262.07 ± 6.4
363.12 K | 262.07 ± 6.4
363.62 K | 262.07 ± 6.4
364.12 K | 262.88 ± 6.4
364.62 K | 262.77 ± 6.4
365.12 K | 263.12 ± 6.5
365.62 K | 263.7 ± 6.5
366.12 K | 264.39 ± 6.5
366.62 K | 264.39 ± 6.5
367.12 K | 263.93 ± 6.5
367.62 K | 263.47 ± 6.5
368.12 K | 263.12 ± 6.5
368.62 K | 263.12 ± 6.5
369.12 K | 263.47 ± 6.5
369.62 K | 263.47 ± 6.5
370.12 K | 263.7 ± 6.5
370.62 K | 263.7 ± 6.5
371.12 K | 263.93 ± 6.5
371.62 K | 264.05 ± 6.5
372.12 K | 264.28 ± 6.5
372.62 K | 264.05 ± 6.5
373.12 K | 264.28 ± 6.5
373.62 K | 264.28 ± 6.5
374.12 K | 264.51 ± 6.5
